Reference: US4400384A, “5-o-Cyanobenzyl-4,5,6,7-tetrahydrothieno [3,2-c] pyridine methanesulfonate and other novel salts thereof” (Sanofi, S.A., priority 1980, dated 1983)
“Also recorded” adds a separate entry of the source. Where two headings read alike, the source gives them in different places.

Legend:
Acute toxicity in rats = details: rat, in vivo
Protocol: The preferred methanesulfonate salt of the present invention was tested for acute and sub-acute toxicity and the results obtained on rats and mice by oral, intravenous and intraperitoneal administration are set forth in the tables below.

rats = assay: Sub-acute toxicity in rats, oral, 6 weeks; type: in vivo
Protocol: These tests were carried out on four groups of 30 rats, 15 males and 15 females in each group; the rats all being type SPF adults. Administration was by the oral route, carried out 5 days per week for a period of 6 consecutive weeks.

dogs [1] = assay: Toxicity by oral administration in dogs; type: in vivo; details: 33 to 100 mg/Kg/day, 24 days
Protocol: Further toxicity investigations were carried out on the MS salt by oral administration in dogs. Two groups of 10 adult dogs were selected; one group being used as the control and the second group having the MS salt administered orally in increasing dosages as follows: […]

dogs [2] = assay: Toxicity by intravenous administration in dogs; type: in vivo
Protocol: Further tests were conducted by intravenous administration of the MS salt to the dogs. In these tests 15 dogs were divided into three groups of 2 male and 3 female dogs each. One group was used as a control; only the 5 ml of […] aqueous saline vehicle being injected intravenously. The other two groups of dogs received intravenous injections of the MS salt in the same vehicle; one group a 2.5% solution of the MS salt at a dosage of 7.5 mg/Kg and the other group receiving the same solution at a dosage of 15 mg/Kg.

[3] = system: blood-platelet aggregation; assay: Inhibition of blood-platelet aggregation (general statement); type: in vivo; details: result in words
Protocol: The inhibitor action on blood-platelet aggregation of the salts of the present invention was determined by two different standard methods known to the art.
The first method, involving the use of ADP (adenosine diphosphate), is that of Ferrand J. C., Gaich C., Dumas, A.--EVALUATION DE L' EFFET ANTI-AGREGANT DE LA TICLOPIDINE PAR UNE TECHNIQUE SUR SANG TOTAL. COMM. SOCIETE DE BIOLOGIE DE TOULOUSE (TOULOUSE Feb. 9, 1978), RESUME IN: REV MED TOULOUSE, 1978, 14, (SUPPL. 5) 680, referred to hereinafter as the ADP method.
The second method is that described in Ferrand J. C., Lale A.--NUMERATION ET AGREGATION PLAQUETTAIRE A L AIDE DE L AUTOCOUNTER. APPLICATION A L ETUDE DE LA TICLOPIDINE. COMM. SYMPOSIUM TECHNICON INDUSTRIE (PARIS, June 15, 1978); Ferrand J. C., Lale A.--EVALUATION EX-VIVO DE L AGREGATION PLAQUETTAIRE PAR UNE TECHNIQUE AUTOMATIQUE SUR SANG TOTAL COMM. SOCIETE FRANCAISE DE BIOLOGIE CLINIQUE (PARIS Sept. 28, 1979); and J. C. Ferrand, A. Lale, D. Aubert and G. Barthelemy--APPRECIATION QUANTITATIVE DE L' ACTIVITE ANTI-AGREGANTE DE LA TICLOPIDINE PAR VOIE AUTOMATIQUE. COMM. REUNION DE L' ASOCIATION FRANCAISE DE PHARMACOLOGISTES DIJON (May 2-3, 1980), and is referred to hereafter as the collagen method. […]

Vasodilator activity = type: in vivo; details: result in words
Anti-thrombotic activity = details: in vivo
red globules = assay: Anti-sludge activity in vitro on red globules; type: cell-based
central nervous system [4] = assay: Central nervous system activity per se, rats; type: in vivo
central nervous system [5] = assay: Central nervous system activity per se, mice; type: in vivo
[6] = system: central nervous system activity of chloral and "Nembutal"; assay: Potentiation of central nervous system activity of chloral and Nembutal; type: in vivo
[7] = system: effects of oxotremorine or reserpine; assay: Modification of the effects of oxotremorine or reserpine; type: in vivo; details: alone or together with ethyl alcohol
Analgesic activity = details: in vivo
rabbit = assay: Cardiovascular action in anesthetized rabbit; type: in vivo; details: perfusions at high dosages
human patients = assay: Clinical study, first series: tolerance; type: in vivo; details: oral capsules, 350 to 1400 mg per day, 3 weeks, 12 patients
Protocol: The MS salt has been administered to human patients orally in the form of capsules each containing 175 mg of the active salt. Twelve patients were treated in four groups; one group receiving 2 capsules per day (350 mg); a second group receiving 4 capsules per day (700 mg); a third group receiving 6 capsules per day (1050 mg); and the fourth group receiving 8 capsules per day (1400 mg). This regimen was continued for 3 weeks.

patients = assay: Clinical study, second series: tolerance; type: in vivo, human; details: oral capsules, 700 mg per day, 7 days plus morning of 8th day, 11 patients
Protocol: In a second series of tests, the MS salt was again administered orally in the form of capsules containing 175 mg of the active salt. Eleven patients were treated, each patient receiving 4 capsules per day containing a total of 700 mg of MS salt divided in two portions of 350 mg morning and evening, after meals, for 7 days, and on the 8th day in the morning only. Therefore, the total amount of active ingredient (MS salt) was 5250 mg to each subject.

[8] = oral, 50, 150, 300 mg/Kg, 5 days per week, 6 weeks

In the case of `CS(=O)(=O)O.N#Cc1ccccc1CN1CCc2sccc2C1` [Methanesulfonate, 5-o-Cyanobenzyl-4,5,6,7-tetrahydrothieno [3,2-c] pyridine methanesulfonate], the LD50 at 8 h (Acute toxicity in rats; intravenous, read-out: LD50, intravenous, rats) is reported as 80.2 mg/kg, the LD50 at 8 h (Acute toxicity in rats; ip, intraperitoneal, read-out: LD50, intraperitoneal, rats) is reported as 719 mg/kg and the “toxicity and tolerance (overall)” value (rats; conclusion from acute and sub-acute tests) is reported as “low toxicity and good tolerance”. For the same molecule, the “microscopic examination of principal organs” value (rats; end of test period or 15 days thereafter) was “normal in appearance with exception of some signs of gastric intolerance”, the “histological examination of the organs” value (rats; oral, 6 weeks) was “good tolerance” and the “behavior of the dosed animals” value (rats; [8]) was “No significant modification of the behavior”. The “death attributable to administration” value (rats; [8]) was “nor was there any death attributable to the administration of the MS salt”, the “deaths attributable to the salt” value (dogs [1]) was “No deaths occurred which were attributable to the MS salt” and the “hematological, blood biochemical or urinary functions” value (dogs [1]) was “No significant variations”. The vomiting (dogs [1]) was “some of the dogs experienced some vomiting”, the “toxicity and tolerance in dogs (overall)” value (dogs [2]; conclusion from oral and intravenous tests) was “of low toxicity and well-tolerated by dogs” and the death (dogs [2]; intravenous, 7.5 and 15 mg/Kg, 2.5% solution in 9% aqueous saline, 23 consecutive days) was “without the death of any dog”. The “inhibitor action against blood-platelet aggregation” value [3] was “excellent inhibitory action against blood-platelet aggregation”, the “peripheral and cerebral vasodilator activity” value (Vasodilator activity) was “lacks the peripheral and cerebral vasodilator activity” and the vasodilator action (Vasodilator activity; listed as MS salt, methanesulfonate) was “without causing vasodilator action; also recorded: free of anti-inflammatory or vasodilator activity as is the MS salt”. The anti-thrombotic activity (Anti-thrombotic activity) was “exhibits anti-thrombotic activity”, the “anti-sludge activity in vitro” value (red globules) was “anti-sludge activity in vitro on red globules” and the “influence on the central nervous system per se, rats” value (central nervous system [4]) was “no influence on the central nervous system”. For the same molecule, the “influence on the central nervous system per se, mice” value (central nervous system [5]) was “no influence on the central nervous system”, the “potentiation of central nervous system activity of Nembutal” value ([6]; "Nembutal" (Ca or Na pentobarbital)) was “does potentialize the central nervous system activity” and the “potentiation of central nervous system activity of chloral” value ([6]; chloral) was “does potentialize the central nervous system activity of chloral”. For the same molecule, the “modification of the effects of oxotremorine” value [7] was “does not modify the effects of oxotremorine”, the “modification of the effects of reserpine” value [7] was “does not modify the effects of oxotremorine or reserpine” and the analgesic properties (Analgesic activity) was “free of analgesic properties”. The cardiovascular depressive action (rabbit) was “cardiovascular depressive action”, the clinical tolerance (human patients) was “Clinical tolerance was excellent” and the “side effects or incidents” value (human patients) was “no side effects or incidents being noted”. The clinical tolerance (patients) was “Clinical tolerance was excellent”.
